Data taken from PubChem BioAssay (NCI).
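Results reflect a 48-hour exposure of cells in 96-well plates to compound at five concentrations. Here, GI50 denotes the concentration required for 50% inhibition of growth. At the TGI there is no net growth.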

Columns and labels:
Experiment in all cases: NCI tumour cell line growth inhibition, 48 h
SK-MEL-28 melanoma = tested on: SK-MEL-28 melanoma
IGROV1 ovarian = tested on: IGROV1 ovarian
T-47D breast = tested on: T-47D breast
SK-MEL-5 melanoma = tested on: SK-MEL-5 melanoma
OVCAR-3 ovarian = tested on: OVCAR-3 ovarian
NCI-H460 lung = tested on: NCI-H460 lung
K-562 leukemia = tested on: K-562 leukemia
TK-10 renal = tested on: TK-10 renal
SF-295 CNS = tested on: SF-295 CNS
MOLT-4 leukemia = tested on: MOLT-4 leukemia
BT-549 breast = tested on: BT-549 breast
UACC-62 melanoma = tested on: UACC-62 melanoma
SF-268 CNS = tested on: SF-268 CNS
KM12 colon = tested on: KM12 colon
HOP-92 NSCLC = tested on: HOP-92 NSCLC
PC-3 prostate = tested on: PC-3 prostate
HCT-15 colon = tested on: HCT-15 colon
EKVX NSCLC = tested on: EKVX NSCLC
SK-OV-3 ovarian = tested on: SK-OV-3 ovarian
MALME-3M melanoma = tested on: MALME-3M melanoma
CAKI-1 renal = tested on: CAKI-1 renal
NCI/ADR-RES ovarian = tested on: NCI/ADR-RES ovarian
MCF7 breast = tested on: MCF7 breast
OVCAR-8 ovarian = tested on: OVCAR-8 ovarian
SNB-75 CNS = tested on: SNB-75 CNS
DU-145 prostate = tested on: DU-145 prostate
OVCAR-4 ovarian = tested on: OVCAR-4 ovarian
CCRF-CEM leukemia = tested on: CCRF-CEM leukemia
MDA-MB-435 = tested on: MDA-MB-435
M14 melanoma = tested on: M14 melanoma
ACHN renal = tested on: ACHN renal
NCI-H522 lung = tested on: NCI-H522 lung
SR leukemia = tested on: SR leukemia
COLO 205 colon = tested on: COLO 205 colon
RPMI-8226 leukemia = tested on: RPMI-8226 leukemia
HT29 colon = tested on: HT29 colon
HOP-62 NSCLC = tested on: HOP-62 NSCLC
SF-539 CNS = tested on: SF-539 CNS
OVCAR-5 ovarian = tested on: OVCAR-5 ovarian
HL-60(TB) leukemia = tested on: HL-60(TB) leukemia
U251 CNS = tested on: U251 CNS
SNB-19 CNS = tested on: SNB-19 CNS
SN12C renal = tested on: SN12C renal
SK-MEL-2 melanoma = tested on: SK-MEL-2 melanoma
NCI-H226 lung = tested on: NCI-H226 lung
NCI-H23 lung = tested on: NCI-H23 lung
A549 NSCLC = tested on: A549 NSCLC
SW-620 colon = tested on: SW-620 colon
MDA-MB-231 breast = tested on: MDA-MB-231 breast
786-0 renal = tested on: 786-0 renal
HCT-116 colon = tested on: HCT-116 colon
HCC-2998 colon = tested on: HCC-2998 colon

## CCOC(=O)c1c2c(n(Cc3ccc(Cl)cc3Cl)c1C)-c1nc(Cc3ccccc3)[nH]c1C(=O)C2=O
SK-MEL-28 melanoma
  GI50: 1.69 µM
  TGI: 3.3 µM
IGROV1 ovarian
  GI50: 2.31 µM
  TGI: 5.07 µM
T-47D breast
  GI50: 2.65 µM
  TGI: 33.3 µM
SK-MEL-5 melanoma
  GI50: 1.8 µM
  TGI: 3.27 µM
OVCAR-3 ovarian
  GI50: 1.8 µM
  TGI: 3.6 µM
NCI-H460 lung
  GI50: 2.27 µM
  TGI: 4.9 µM
K-562 leukemia
  GI50: 1.97 µM
  TGI: 5.25 µM
TK-10 renal
  GI50: 2.12 µM
  TGI: 3.65 µM
SF-295 CNS
  GI50: 1.99 µM
  TGI: 4.59 µM
MOLT-4 leukemia
  GI50: 1.94 µM
  TGI: 4.87 µM
BT-549 breast
  GI50: 2.07 µM
  TGI: 3.87 µM
UACC-62 melanoma
  GI50: 1.82 µM
  TGI: 3.48 µM
SF-268 CNS
  GI50: 1.94 µM
  TGI: 4.28 µM
KM12 colon
  GI50: 1.47 µM
  TGI: 2.89 µM
HOP-92 NSCLC
  GI50: 1.62 µM
  TGI: 3.06 µM
PC-3 prostate
  GI50: 1.92 µM
  TGI: 4.9 µM
HCT-15 colon
  GI50: 2.15 µM
  TGI: 4.64 µM
EKVX NSCLC
  GI50: 2.24 µM
  TGI: 4.49 µM
SK-OV-3 ovarian
  GI50: 5.02 µM
  TGI: 19.3 µM
MALME-3M melanoma
  GI50: 2 µM
  TGI: 3.66 µM
CAKI-1 renal
  GI50: 2.31 µM
  TGI: 4.01 µM
NCI/ADR-RES ovarian
  GI50: 3.19 µM
  TGI: 10.6 µM
MCF7 breast
  GI50: 2.55 µM
  TGI: 6.08 µM
OVCAR-8 ovarian
  GI50: 3.49 µM
  TGI: 50.4 µM
SNB-75 CNS
  GI50: 1.88 µM
  TGI: 3.63 µM
DU-145 prostate
  GI50: 1.78 µM
  TGI: 3.3 µM
OVCAR-4 ovarian
  GI50: 1.87 µM
  TGI: 4.8 µM
CCRF-CEM leukemia
  GI50: 1.81 µM
  TGI: 4.45 µM
MDA-MB-435
  GI50: 1.99 µM
  TGI: 3.75 µM
M14 melanoma
  GI50: 2.3 µM
  TGI: 5.05 µM
ACHN renal
  GI50: 1.75 µM
  TGI: 3.17 µM
NCI-H522 lung
  GI50: 2.2 µM
  TGI: 4.68 µM
SR leukemia
  GI50: 1.78 µM
  TGI: 3.82 µM
COLO 205 colon
  GI50: 2.42 µM
  TGI: 5.85 µM
RPMI-8226 leukemia
  GI50: 2.25 µM
  TGI: 4.65 µM
HT29 colon
  GI50: 2.72 µM
  TGI: 8.61 µM
HOP-62 NSCLC
  GI50: 2.32 µM
  TGI: 5.48 µM
SF-539 CNS
  GI50: 2.14 µM
  TGI: 3.97 µM
OVCAR-5 ovarian
  GI50: 2.25 µM
  TGI: 4.56 µM
HL-60(TB) leukemia
  GI50: 1.57 µM
  TGI: 3.71 µM
U251 CNS
  GI50: 2.11 µM
  TGI: 4.62 µM
SNB-19 CNS
  GI50: 3.51 µM
  TGI: 45.2 µM
SN12C renal
  GI50: 2.22 µM
  TGI: 4.75 µM
SK-MEL-2 melanoma
  GI50: 2.83 µM
  TGI: 9.2 µM
NCI-H226 lung
  GI50: 2.19 µM
  TGI: 4.68 µM
NCI-H23 lung
  GI50: 2.03 µM
  TGI: 4.29 µM
A549 NSCLC
  GI50: 3.84 µM
  TGI: > 100 µM
SW-620 colon
  GI50: 2.11 µM
  TGI: 4.07 µM
MDA-MB-231 breast
  GI50: 1.93 µM
  TGI: 3.56 µM
786-0 renal
  GI50: 1.82 µM
  TGI: 3.47 µM
HCT-116 colon
  GI50: 1.68 µM
  TGI: 3.07 µM
HCC-2998 colon
  GI50: 1.93 µM
  TGI: 3.78 µM
